One series has as its target T1, recombinant PRL-3 (Homo sapiens, UniProt O75365).
T1 construct: 6xHis (N, cleaved yes); made in house; host or cells: E. coli One Shot BL21 Star
The experiment in a line: In vitro phosphatase assay (DiFMUP hydrolysis), PRL-3. The class given is biochemical. To be noted: for % Phosphatase Activity (compared to DMSO) PRL-3: FDA-approved drug screen.

The next series addresses T2, recombinant PRL-2 (Homo sapiens, UniProt Q12974).
T2 construct: 6xHis (N, cleaved yes); made in house; host or cells: E. coli One Shot BL21 Star
T2 sequence (Q12974 1-167): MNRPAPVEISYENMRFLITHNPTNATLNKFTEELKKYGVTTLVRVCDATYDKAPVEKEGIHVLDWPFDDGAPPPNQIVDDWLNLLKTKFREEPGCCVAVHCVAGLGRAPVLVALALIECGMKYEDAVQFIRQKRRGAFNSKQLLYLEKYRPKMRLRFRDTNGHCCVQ
The experiment in a line: In vitro phosphatase assay (DiFMUP hydrolysis), PRL-2.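 For all read-outs here: PRL-2 activity read as DiFMUP hydrolysis after 20 min at room temperature with drug, enzyme first pre-reduced at 4 °C for 20 min.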 The class given is biochemical. Particulars: for % Phosphatase Activity (compared to DMSO) PRL-2: FDA-approved drug screen.

A further series addresses T3, recombinant PRL-1 (Homo sapiens, UniProt Q93096).
T3 construct: 6xHis (N, cleaved yes); made in house; host or cells: E. coli One Shot BL21 Star
T3 sequence (Q93096 1-173): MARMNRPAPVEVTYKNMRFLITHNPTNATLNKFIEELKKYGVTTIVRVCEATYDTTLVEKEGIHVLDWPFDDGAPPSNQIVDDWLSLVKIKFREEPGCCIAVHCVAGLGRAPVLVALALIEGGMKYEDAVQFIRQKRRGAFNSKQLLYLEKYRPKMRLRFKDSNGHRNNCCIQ
In words: In vitro phosphatase assay (DiFMUP hydrolysis), PRL-1. The series is classed as biochemical. Particulars: for % Phosphatase Activity (compared to DMSO) PRL-1: FDA-approved drug screen.

The next series concerns HEK293T cells. The experiment in a line: MTT viability assay. The class given is cell-based, human. Particulars: drug doses 1 to 100 µM, 16 h, normalized to 1% DMSO. (In general: Formazan colour is commonly taken as a measure of viable cells.)

T1 sequence (O75365 whole entry): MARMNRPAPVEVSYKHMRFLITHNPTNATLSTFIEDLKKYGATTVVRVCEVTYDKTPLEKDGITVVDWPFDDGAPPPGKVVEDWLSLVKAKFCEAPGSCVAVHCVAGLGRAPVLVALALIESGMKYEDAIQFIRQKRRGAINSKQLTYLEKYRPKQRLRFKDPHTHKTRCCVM
Experimental for HEK293T cells: Cells were seeded into duplicate wells of a 96 well plate at a density of 2 × 10^4 cells per well and allowed to recover for 24 h. Cells were then treated with drug or DMSO at the indicated concentrations for 16 h. Following drug treatment, 10 μL of 5 mg/ml MTT (Sigma, M5655) was added to each well and cells were incubated for 4 h. Finally, media were removed, and the dye was solubilized in 100 μL of 0.1 M HCl in isopropanol. Absorbance was measured at 570 nm and 690 nm with final absorbance measurements as 570–690 nm.
Experimental for recombinant PRL-3: Briefly, protein was diluted in reaction buffer and allowed to incubate at 4 °C for 20 min to allow for full reduction of the active site. DiFMUP, drug, and protein were added, and plates were incubated for 20 min at room temperature. Fluorescence intensities were measured on a Cytation 5 plate reader (Biotek) at an EX:360 nm and EM:460 nm. […] Inhibition selectivity for PRLs over a panel of other phosphatases was determined using PhosphataseProfiler (Eurofins, Cat # PP260).

With Eptifibatide Acetate, the “% Phosphatase Activity (compared to DMSO) PRL-3” value at recombinant PRL-3 (compared to DMSO) amounted to 91%. Moreover, the “% Phosphatase Activity (compared to DMSO) PRL-2” value at recombinant PRL-2 (compared to DMSO) is reported as 82%. The “% Phosphatase Activity (compared to DMSO) PRL-1” value at recombinant PRL-1 (compared to DMSO) is listed as 88%.

For Escin, the “% Phosphatase Activity (compared to DMSO) PRL-3” value on recombinant PRL-3 (compared to DMSO) was 95%. The “% Phosphatase Activity (compared to DMSO) PRL-2” value on recombinant PRL-2 (compared to DMSO) amounted to 73%. The “% Phosphatase Activity (compared to DMSO) PRL-1” value at recombinant PRL-1 (compared to DMSO) came to 72%.

In the case of GHRP-2, the “% Phosphatase Activity (compared to DMSO) PRL-3” value at recombinant PRL-3 (compared to DMSO) amounted to 100%. In addition, at recombinant PRL-2 (compared to DMSO), the “% Phosphatase Activity (compared to DMSO) PRL-2” value was 102%. Moreover, the “% Phosphatase Activity (compared to DMSO) PRL-1” value on recombinant PRL-1 (compared to DMSO) is 98%.

Turning to Heparin sodium, the “% Phosphatase Activity (compared to DMSO) PRL-3” value at recombinant PRL-3 (compared to DMSO) was 78%. Further, the “% Phosphatase Activity (compared to DMSO) PRL-2” value on recombinant PRL-2 (compared to DMSO) is listed as 72%. Moreover, the “% Phosphatase Activity (compared to DMSO) PRL-1” value at recombinant PRL-1 (compared to DMSO) turned out to be 86%.

Isosorbide: the “% Phosphatase Activity (compared to DMSO) PRL-3” value on recombinant PRL-3 (compared to DMSO) is recorded as 69%. The “% Phosphatase Activity (compared to DMSO) PRL-2” value on recombinant PRL-2 (compared to DMSO) was 89%. For the same substance, at recombinant PRL-1 (compared to DMSO), the “% Phosphatase Activity (compared to DMSO) PRL-1” value is 90%.

As for Nafarelin Acetate, the “% Phosphatase Activity (compared to DMSO) PRL-3” value on recombinant PRL-3 (compared to DMSO) worked out at 91%. The “% Phosphatase Activity (compared to DMSO) PRL-2” value at recombinant PRL-2 (compared to DMSO) stood at 91%. The “% Phosphatase Activity (compared to DMSO) PRL-1” value at recombinant PRL-1 (compared to DMSO) is given as 91%.

As to Oxytocin (Syntocinon), the “% Phosphatase Activity (compared to DMSO) PRL-3” value in the series with recombinant PRL-3 (compared to DMSO) is reported as 81%. In addition, the “% Phosphatase Activity (compared to DMSO) PRL-2” value with recombinant PRL-2 (compared to DMSO) is 68%. The “% Phosphatase Activity (compared to DMSO) PRL-1” value with recombinant PRL-1 (compared to DMSO) was found to be 82%.

Take S-Ruxolitinib (INCB018424): the “% Phosphatase Activity (compared to DMSO) PRL-3” value on recombinant PRL-3 (compared to DMSO) is listed as 104%. Also, on recombinant PRL-2 (compared to DMSO), the “% Phosphatase Activity (compared to DMSO) PRL-2” value is recorded as 127%. Also, the “% Phosphatase Activity (compared to DMSO) PRL-1” value at recombinant PRL-1 (compared to DMSO) turned out to be 113%.

In the case of Spiramycin, the “% Phosphatase Activity (compared to DMSO) PRL-3” value at recombinant PRL-3 (activity compared to DMSO) came out at 68%. For the same substance, the “% Phosphatase Activity (compared to DMSO) PRL-2” value at recombinant PRL-2 (activity compared to DMSO) amounted to 90%. At recombinant PRL-1 (activity compared to DMSO), the “% Phosphatase Activity (compared to DMSO) PRL-1” value came to 86%.

Take Teneligliptin hydrobromide: the “% Phosphatase Activity (compared to DMSO) PRL-3” value on recombinant PRL-3 (activity compared to DMSO) is listed as 90%. The “% Phosphatase Activity (compared to DMSO) PRL-2” value at recombinant PRL-2 (activity compared to DMSO) came out at 100%. In addition, the “% Phosphatase Activity (compared to DMSO) PRL-1” value on recombinant PRL-1 (activity compared to DMSO) stood at 95%.

Regarding Tyloxapol, the “% Phosphatase Activity (compared to DMSO) PRL-3” value on recombinant PRL-3 (activity compared to DMSO) came out at 90%. At recombinant PRL-2 (activity compared to DMSO), the “% Phosphatase Activity (compared to DMSO) PRL-2” value was determined as 83%. Moreover, on recombinant PRL-1 (activity compared to DMSO), the “% Phosphatase Activity (compared to DMSO) PRL-1” value is 89%.

By IC50 is commonly meant the concentration needed to halve the response being measured. For the substance Vitamin B12 [reference compound], the “% Phosphatase Activity (compared to DMSO) PRL-3” value at recombinant PRL-3 (activity compared to DMSO) is reported as -2%. The IC50 at recombinant PRL-3 ([…] protein, DiFMUP at KM, read-out: Calculated IC50, PRL-3 phosphatase activity) was 900 ± 100 nM; on recombinant PRL-2 ([…] protein, DiFMUP at KM, read-out: Calculated IC50, PRL-2 phosphatase activity) it was 900 ± 200 nM; on recombinant PRL-1 ([…] protein, DiFMUP at KM, read-out: Calculated IC50, PRL-1 phosphatase activity), 700 ± 200 nM. Besides, the “viability (MTT)” value with HEK293T cells is “no effect on the viability”. For the same substance, the “% Phosphatase Activity (compared to DMSO) PRL-2” value on recombinant PRL-2 (activity compared to DMSO) is -16%. The “% Phosphatase Activity (compared to DMSO) PRL-1” value on recombinant PRL-1 (activity compared to DMSO) turned out to be 2.68%.

On to Vitamin E, for which the “% Phosphatase Activity (compared to DMSO) PRL-3” value at recombinant PRL-3 (activity compared to DMSO) is 90%. The “% Phosphatase Activity (compared to DMSO) PRL-2” value on recombinant PRL-2 (activity compared to DMSO) is 90%. Moreover, the “% Phosphatase Activity (compared to DMSO) PRL-1” value at recombinant PRL-1 (activity compared to DMSO) worked out at 108%.
